Assay results from patent US6884802B2, “6-heteroarylphenanthridines” (ALTANA Pharma AG, priority 2000, dated 2005).

Tested on: PDE4
Experiment: Inhibition of PDE4 activity ([3H]cAMP hydrolysis, cytosol from human neutrophils)
Assay type: biochemical
Settings: 0.5 μM cAMP, Motapizone 1 μM included to suppress PDE3, 37° C.
Method: Method for Measuring Inhibition of PDE4 Activity
PDE4 activity was determined as described by Thompson et al. (Adv Cycl Nucl Res 10: 69-92, 1979) with some modifications (Bauer and Schwabe, Naunyn-Schmiedeberg's Arch Pharmacol 311: 193-198, 1980). At a final assay volume of 200 μl (96 well microtiter plates) the assay mixture contained 20 mM Tris (pH 7.4), 5 mM MgCl2, 0.5 μM cAMP, [^3H]cAMP (about 30,000 cpm/assay), the test compound and an aliquot of cytosol from human neutrophils which mainly contains PDE4 activity as described by Schudt et al. (Naunyn-Schmiedeberg's Arch Pharmacol 344: 682-690, 1991); the PDE3-specific inhibitor Motapizone (1 μM) was included to suppress PDE3 activity originating from contaminating platelets. Serial dilutions of the compounds were prepared in DMSO and further diluted 1:100 (v/v) in the assays to obtain the desired final concentrations of the inhibitors at a DMSO concentration of 1% (v/v) which by itself only slightly affected PDE4 activity.
After preincubation for 5 min at 37° C., the reaction was started by the addition of substrate (cAMP) and the assays were incubated for further 15 min at 37° C. 50 μl of 0.2 N HCl was added to stop the reaction and the assays were left on ice for about 10 min. Following incubation with 25 μg 5′-nucleotidase (Crotalus atrox snake venom) for 10 min at 37° C., the assays were loaded on QAE Sephadex A-25 (1 ml bed volume). The columns were eluted with 2 ml of 30 mM ammonium formiate (pH 6.0) and the eluate was counted for radioactivity. Results were corrected for blank values (measured in the presence of denatured protein) which were below 5% of total radioactivity. […] The IC50-values for the compounds according to the invention for the inhibition of the PDE4 activity were determined from the concentration-inhibition curves by nonlinear-regression.

| SMILES | Inhibition of PDE4 activity [measured as −logC50 (mol/l)] |
| --- | --- |
| COc1cc2c(cc1OC)[C@@H]1CCCC[C@@H]1N=C2c1cccs1 (relative stereo) [Compound 7, cis-8,9-Dimethoxy-6-(thiophen-2-yl)-1,2,3,4,4a,10b-hexahydrophenanthridine] | 8.14 −log(mol/l) |
| COc1cc2c(cc1OC)[C@@H]1CCCC[C@@H]1N=C2c1ccc(C)s1 (relative stereo) [Compound 8, cis-8,9-Dimethoxy-6-(5-methyl-thiophen-2-yl)-1,2,3,4,4a,10b-hexahydrophenanthridine] | 8.19 −log(mol/l) |
| COc1cc2c(cc1OC)[C@@H]1CCCC[C@@H]1N=C2c1ccsc1 (relative stereo) [Compound 9, cis-8,9-Dimethoxy-6-(thiophen-3-yl)-1,2,3,4,4a,10b-hexahydrophenanthridine] | 7.45 −log(mol/l) |
| COc1cc2c(cc1OC)[C@@H]1CCCC[C@@H]1N=C2c1cc2ccccc2[nH]1.O=C(O)C(F)(F)F (relative stereo) [Compound 10, cis-8,9-Dimethoxy-6-(1H-indol-2-yl)-1,2,3,4,4a,10b-hexahydrophenanthridine trifluoroacetate] | 8.19 −log(mol/l) |
| COc1cc2c(cc1OC)[C@@H]1CCCC[C@@H]1N=C2c1cc2cc(F)ccc2[nH]1.O=C(O)C(F)(F)F (relative stereo) [Compound 11, cis-8,9-Dimethoxy-6-(5-fluoro-1H-indol-2-yl)-1,2,3,4,4a,10b-hexahydrophenanthridine trifluoroacetate] | 8.14 −log(mol/l) |
| COc1ccc2cc(C3=N[C@H]4CCCC[C@H]4c4cc(OC)c(OC)cc43)[nH]c2c1.O=C(O)C(F)(F)F (relative stereo) [Compound 12, cis-8,9-Dimethoxy-6-(6-methoxy-1H-indol-2-yl)-1,2,3,4,4a,10b-hexahydrophenanthridine trifluoroacetate] | 8.27 −log(mol/l) |
| COc1cc2c(cc1OC)[C@@H]1CCCC[C@@H]1N=C2c1ccc2ccccc2n1 (relative stereo) [Compound 15, cis-8,9-Dimethoxy-6-(quinolin-2-yl)-1,2,3,4,4a,10b-hexahydrophenanthridine] | 7.68 −log(mol/l) |
| COc1cc2c(cc1OC)[C@@H]1CCCC[C@@H]1N=C2c1occc1C (relative stereo) [Compound 16, cis-8,9-Dimethoxy-6-(3-methyl-furan-2-yl)-1,2,3,4,4a,10b-hexahydrophenanthridine] | 7.42 −log(mol/l) |
| COc1cc2c(cc1OC)[C@@H]1CCCC[C@@H]1N=C2c1cc2ccccc2s1 (relative stereo) [Compound 17, cis-8,9-Dimethoxy-6-(benzo[b]thiophen-2-yl)-1,2,3,4,4a,10b-hexahydrophenanthridine] | 8.84 −log(mol/l) |
| COc1cc2c(cc1OC)[C@@H]1CCCC[C@@H]1N=C2c1oc2ccccc2c1C (relative stereo) [Compound 20, cis-8,9-Dimethoxy-6-(3-methyl-benzofuran-2-yl)-1,2,3,4,4a,10b-hexahydrophenanthridine] | 8.53 −log(mol/l) |
| COc1cc2c(cc1OC)[C@@H]1CCCC[C@@H]1N=C2c1cc2cccc(OC)c2o1 (relative stereo) [Compound 21, cis-8,9-Dimethoxy-6-(7-methoxy-benzofuran-2-yl)-1,2,3,4,4a,10b-hexahydrophenanthridine] | 8.51 −log(mol/l) |
| COc1ccc2oc(C3=N[C@H]4CCCC[C@H]4c4cc(OC)c(OC)cc43)cc2c1 (relative stereo) [Compound 23, cis-8,9-Dimethoxy-6-(5-methoxy-benzofuran-2-yl)-1,2,3,4,4a,10b-hexahydrophenanthridine] | 8.33 −log(mol/l) |
| COc1cc2c(cc1OC)[C@@H]1CCCC[C@@H]1N=C2c1ccnc2ccccc12 [Compound 1, (−)-cis-8,9-Dimethoxy-6-quinolin-4-yl-1,2,3,4,4a,10b-hexahydrophenanthridine] | 7.4 −log(mol/l) |
